We go through two compounds from patent US9399649B2, “Compounds for treating spinal muscular atrophy” (PTC Therapeutics Inc., priority 2012, dated 2016).

SMILES strings stand for the structures.

In this assay the test system is full length and Δ7 SMN2 mRNA. Briefly: Endogenous SMN2 mRNA RT-qPCR splicing assay in cultured cells. It counts as cell-based, human. As to conditions: Type 1 SMA patient fibroblasts (GM03813), increasing concentrations, 24 hr, FIG. 4. The procedure:
The reverse transcription-quantitative PCR-based (RT-qPCR) assay is used to quantify the levels of the full length and Δ7 SMN2 mRNA in primary cells and cell lines containing the SMN2 gene treated with a test compound.
GM03813 SMA patient cells (5,000 cells/well) are seeded in 200 μL, of cell culture medium (DMEM plus 10% FBS) in 96-well flat-bottom plates and the plate is immediately swirled to ensure proper dispersal of cells, forming an even monolayer of cells. Cells are allowed to attach for at least 4-6 hrs. Test compounds are serially diluted 3.16-fold in 100% DMSO to generate a 7-point concentration curve. A solution of test compound (1 μL, 200× in DMSO) is added to each test well and 1 μL, DMSO is added to each control well. The plate is incubated for 24 hrs in a cell culture incubator (37° C., 5% CO2, 100% relative humidity). The cells are then lysed in Cells-To-Ct lysis buffer and the lysate is stored at 80° C.
SMN2-specific spliced products and GAPDH mRNA are identified using the following primers and probes in Table 5. Primer SMN FL Forward B (SEQ ID NO. 7) hybridizes to a nucleotide sequence in exon 7 (nucleotide 32 to nucleotide 54) and exon 8 (nucleotide 1 to nucleotide 4), primer SMN Δ7 Forward B (SEQ ID NO. 8) hybridizes to a nucleotide sequence in exon 6 (nucleotide 87 to nucleotide 111) and exon 8 (nucleotide 1 to nucleotide 3), primer SMN Reverse B (SEQ ID NO. 9) hybridizes to a nucleotide sequence in exon 8 (nucleotide 39 to nucleotide 62), probe SMN Probe B (SEQ ID NO. 10) hybridizes to a nucleotide sequence in exon 8 (nucleotide 7 to nucleotide 36). These primers and probe hybridize to nucleotide sequences common to human SMN1 and SMN2 mRNA. Since the SMA patient cells used in Example 3 contain only the SMN2 gene, RT-qPCR can quantify only SMN2 full-length and Δ7 mRNA.
The SMN forward and reverse primers are used at final concentrations of 0.4 μM. The SMN probe is used at a final concentration of 0.15 μM. GAPDH primers are used at final concentrations of 0.1 μM and the probe at 0.075 μM. The One-Step RT-PCR kit was used as the Real-Time PCR Mix. […]
The increase of SMN2 FL and decrease in SMN2 Δ7 mRNA relative to those in cells treated with vehicle control are determined from real-time PCR data using a modified ΔΔCt method (as described in Livak and Schmittgen, Methods, 2001, 25:402-8). The amplification efficiency (E) is calculated from the slope of the amplification curve for SMN2 FL, SMN2 Δ7, and GAPDH individually. The abundances of SMN2 FL, SMN2 Δ7, and GAPDH are then calculated as (1+E)^−Ct, where Ct is the threshold value for each amplicon. […]
For orientation: In qPCR the cycle at which signal appears reflects the starting amount.

In the case of `Cc1cn2cc(-c3cc4ccc(N5CCN6CCC[C@H]6C5)cc4c(=O)o3)nc2c(C)n1` [Cpd 69, 3-(6,8-dimethylimidazo[1,2-a]pyrazin-2-yl)-7-[(8aS)-hexahydropyrrolo[1,2-a]pyrazin-2(1H)-yl]-1H-isochromen-1-one], the “SMN2 FL mRNA relative to vehicle” value is given as “progressively more SMN2 FL mRNA” and the “SMN2 Δ7 mRNA relative to vehicle” value is on record as “less SMN2 Δ7 mRNA”.

Turning to `Cc1cn2cc(-c3cc4ccc(N5CCN(C)CC5)cc4c(=O)o3)nc2c(C)n1` [Cpd 65, 3-(6,8-dimethylimidazo[1,2-a]pyrazin-2-yl)-7-(4-methylpiperazin-1-yl)-1H-isochromen-1-one], the “SMN2 FL mRNA relative to vehicle” value is given as “progressively more SMN2 FL mRNA” and the “SMN2 Δ7 mRNA relative to vehicle” value is recorded as “less SMN2 Δ7 mRNA”.
